From ChEMBL document CHEMBL1140665, “Eco-friendly synthesis and study of new plant growth promoters: 3,3'-Diindolylmethane and its derivatives” (2007)

Experiments:
Type in all cases: functional
Oryza sativa [1] = test: Growth promoting activity in Oryza sativa assessed as shoot length at 31.25 ppm on day 5
Oryza sativa [2] = test: Growth promoting activity in Oryza sativa assessed as root length at 31.25 ppm on day 5
Oryza sativa [3] = test: Growth promoting activity in Oryza sativa assessed as shoot length at 62.5 ppm on day 5
Oryza sativa [4] = test: Growth promoting activity in Oryza sativa assessed as root length at 62.5 ppm on day 5
Oryza sativa [5] = test: Growth promoting activity in Oryza sativa assessed as shoot length at 125 ppm on day 5
Oryza sativa [6] = test: Growth promoting activity in Oryza sativa assessed as root length at 125 ppm on day 5
Oryza sativa [7] = test: Growth promoting activity in Oryza sativa assessed as shoot length at 250 ppm on day 5
Oryza sativa [8] = test: Growth promoting activity in Oryza sativa assessed as root length at 250 ppm on day 5
Oryza sativa [9] = test: Growth promoting activity in Oryza sativa assessed as shoot length at 500 ppm on day 5
Oryza sativa [10] = test: Growth promoting activity in Oryza sativa assessed as root length at 500 ppm on day 5
Oryza sativa [11] = test: Growth promoting activity in Oryza sativa assessed as shoot length at 1000 ppm on day 5
Oryza sativa [12] = test: Growth promoting activity in Oryza sativa assessed as root length at 1000 ppm on day 5

SMILES | Activity (Oryza sativa [1]) [mm] | Activity (Oryza sativa [2]) [mm] | Activity (Oryza sativa [3]) [mm] | Activity (Oryza sativa [4]) [mm] | Activity (Oryza sativa [5]) [mm] | Activity (Oryza sativa [6]) [mm] | Activity (Oryza sativa [7]) [mm] | Activity (Oryza sativa [8]) [mm] | Activity (Oryza sativa [9]) [mm] | Activity (Oryza sativa [10]) [mm] | Activity (Oryza sativa [11]) [mm] | Activity (Oryza sativa [12]) [mm]
COc1ccc2c(c1)c(Cc1cn(C)c3ccc(OC)cc13)cn2C | 9.78 | 25.7 | 11.5 | 28.2 | 13.6 | 30.4 | 11.42 | 26.72 | 9.66 | 23.3 | 7.8 | 20.78
Cc1c(Cc2c(C)n(C)c3ccccc23)c2ccccc2n1C | 14.7 | 34.2 | 16.4 | 36.4 | 18.7 | 39.4 | 16.8 | 35.42 | 14.7 | 33.4 | 12 | 30.72
O=C(O)Cc1c[nH]c2ccccc12 [INDOLE-3-ACETIC ACID] | 8.72 | 15.6 | 9.81 | 18.7 | 10.6 | 20.3 |  |  | 7.66 | 14.4 | 5.28 | 
Cn1cc(Cc2cn(C)c3ccc([N+](=O)[O-])cc23)c2cc([N+](=O)[O-])ccc21 | 8.87 | 16.2 | 9.96 | 18.9 | 11 | 21.4 | 9.56 | 18.16 | 7.82 | 15.2 | 5.76 | 12.12
Brc1ccc2[nH]cc(Cc3c[nH]c4ccc(Br)cc34)c2c1 | 9.5 | 18.6 | 11 | 21.1 | 12.7 | 23.2 | 10.7 | 19.72 | 8.53 | 16.6 | 6.7 | 13.8
Cn1cc(Cc2cn(C)c3ccccc23)c2ccccc21 | 9.2 | 20.4 | 10.7 | 23.5 | 12.2 | 25.4 | 10.3 | 22.52 | 8.37 | 19.7 | 6.1 | 16.72
c1ccc2c(Cc3c[nH]c4ccccc34)c[nH]c2c1 [ARUNDINE] | 11.2 | 24.6 | 13.4 | 26.3 | 15.7 | 29.5 |  |  | 10.9 | 22.4 | 8.45 | 
Cn1cc(Cc2cn(C)c3ccc(Br)cc23)c2cc(Br)ccc21 | 9.05 | 16.8 | 10.1 | 19.6 | 11.4 | 22.6 | 9.72 | 18.56 | 8.12 | 15.9 | 5.92 | 12.9
Cc1[nH]c2ccccc2c1Cc1c(C)[nH]c2ccccc12 | 16.4 | 40.2 | 19.6 | 42.8 | 21.1 | 46.5 | 18.57 | 40.66 | 16.3 | 38.5 | 13.3 | 35.12
Cn1c(-c2ccccc2)c(Cc2c(-c3ccccc3)n(C)c3ccccc23)c2ccccc21 | 13.8 | 29.6 | 15.4 | 31.2 | 17.2 | 34.5 | 15.01 | 30.27 | 13.6 | 28.2 | 10.8 | 25.6
COc1ccc2[nH]cc(Cc3c[nH]c4ccc(OC)cc34)c2c1 | 13.4 | 28.4 | 15.3 | 30.6 | 17.6 | 33.8 | 15.23 | 29.42 | 13.4 | 26.5 | 11.6 | 23.62
c1ccc(-c2[nH]c3ccccc3c2Cc2c(-c3ccccc3)[nH]c3ccccc23)cc1 | 15.2 | 33.6 | 17.4 | 35.9 | 19.5 | 38.7 | 17.32 | 34.2 | 15.5 | 32.6 | 12.9 | 29.76
